Reference: patent US20260176290A1, “INHIBITORS OF KRAS(G12D)” (Ranok Therapeutics (Hangzhou) Co. Ltd., priority 2022, published 2026)

Experiment: in vivo
Settings: male, CD-1, mouse, po
Description: CD-1 mice were randomly assigned to 6 groups with 3 male mice in each compound group. […] Compounds were orally administered (PO) in a single dose to each mouse in its group. Blood samples were taken within 72 hours. Bioavailability (F %) was determined and by liquid chromatography-mass spectrometry (LC-MS/MS).

Compared with `C#Cc1cccc2cc(O)cc(-c3ncc4c(N5CC6CCC(C5)N6)nc(OCC5(CN6CC7C(C6)C7(F)F)CC5)nc4c3F)c12` (stereo not drawn) [Example 100], `C#Cc1c(F)ccc2cc(O)cc(-c3ncc4c(N5CC6CCC(C5)N6)nc(OCC5(CN6CC7C(F)C7C6)CC5)nc4c3F)c12` (stereo not drawn) [Example 149] is higher in bioavailability: 1.7% for the first, 12.9% for the second.

Compared with `C#Cc1c(F)ccc2cc(O)cc(-c3nc(OC)c4c(N5CC6CCC(C5)N6C(=O)OC(C)OC(C)=O)nc(OCC5(CN6CC7CC7C6)CC5)nc4c3F)c12` (stereo not drawn) [Example 146], `C#Cc1c(F)ccc2cc(O)cc(-c3nc(OC)c4c(N5CC6CCC(C5)N6C(=O)OCOC(=O)C(C)C)nc(OCC5(CN6CC7CC7C6)CC5)nc4c3F)c12` (stereo not drawn) [Example 148] is lower in bioavailability: 8.3% for the first, 6.8% for the second.

First: C#Cc1c(F)ccc2cc(O)cc(-c3nc(OC)c4c(N5CC6CCC(C5)N6)nc(OCC5(CN6CC7C(F)C7C6)CC5)nc4c3F)c12 (stereo not drawn) [Example 155]
Second: [2H]C([2H])([2H])Oc1nc(-c2cc(O)cc3ccc(F)c(C#C)c23)c(F)c2nc(OCC3(CN4CC5C(F)C5C4)CC3)nc(N3CC4CCC(C3)N4)c12 (stereo not drawn) [Example 167]
The bioavailability of the first is higher: 8.03% for the first, 7.14% for the second.

Going from `COc1nc(-c2cc(N)cc(Cl)c2C(F)(F)F)c(F)c2nc(OCC3(CN4CC5CC5C4)CC3)nc(N3CC4CCC(C3)N4)c12` (stereo not drawn) [Example 165] to `C#Cc1c(F)ccc2cc(N)cc(-c3nc(OC)c4c(N5CC6CCC(C5)N6)nc(OCC5(CN6CC7CC7C6)CC5)nc4c3F)c12` (stereo not drawn) [Example 184], the bioavailability falls from 13.8% to 5.75%.

`C#Cc1c(F)ccc2c(F)c(O)cc(-c3nc(OC)c4c(N5CC6CCC(C5)N6)nc(OCC5(CN6CC7CC7C6)CC5)nc4c3F)c12` (stereo not drawn) [Example 168] showed a bioavailability of 13.6%.
